We go through ten compounds from US7354940B2, “2,5-dioxoimidazolidin-4-yl acetamines and analogues as inhibitors of metalloproteinase mmp12” (AstraZeneca AB, priority 2002, dated 2008).

The target of this assay is T1, Recombinant human MMP12 catalytic domain (Homo sapiens, UniProt P39900).
T1 construct: Recombinant human MMP12 catalytic domain; made in house
Kind of assay: Isolated enzyme assay (MMP12 enzyme assay). The assay is classed as biochemical. The settings on record: fluorogenic substrate Mac-Pro-Cha-Gly-Nva-His-Ala-Dpa-NH2, 60 minutes at room temperature, pH 7.3. The protocol: Recombinant human MMP12 catalytic domain may be expressed and purified as described by Parkar A. A. et al, (2000), Protein Expression and Purification, 20:152. The purified enzyme can be used to monitor inhibitors of activity as follows: MMP12 (50 ng/ml final concentration) is incubated for 60 minutes at room temperature with the synthetic substrate Mac-Pro-Cha-Gly-Nva-His-Ala-Dpa-NH2 in assay buffer (0.1M “Tris-HCl” (trade mark) buffer, pH 7.3 containing 0.1M NaCl, 20 mM CaCl2, 0.020 mM ZnCl and 0.05% (w/v) “Brij 35 ” (trade mark) detergent) in the presence (5 concentrations) or absence of inhibitors. Activity is determined by measuring the fluorescence at λex 320 nm and λem 405 nm. Percent inhibition is calculated as follows: % Inhibition is equal to the [Fluorescenceplus inhibitor−Fluorescencebackground] divided by the [Fluorescenceminus inhibitor−Fluorescenebackground].

T1 sequence (P39900 106-263 limits assumed): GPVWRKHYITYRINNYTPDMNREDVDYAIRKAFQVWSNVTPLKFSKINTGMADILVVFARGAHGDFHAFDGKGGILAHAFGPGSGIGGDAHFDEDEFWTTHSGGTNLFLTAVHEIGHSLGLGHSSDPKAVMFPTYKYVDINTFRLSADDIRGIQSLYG

As for `O=C(CC1NC(=O)NC1=O)NCCc1ccc(-c2ccc(F)cc2)cc1` (stereo not shown) [Example 1, 2-(2,5-Dioxoimidazolidin-4-yl)-N-[2-(4′-fluoro-biphenyl-4-yl)-ethyl]-acetamide], the IC50 – broadly, the concentration at which inhibition is half-maximal – was 22 nM.

For the compound `N#Cc1ccc(-c2ccc(CCNC(=O)CC3NC(=O)NC3=O)cc2)cc1` (stereo not shown) [Example 2, N-[2-(4′-Cyano-biphenyl-4-yl)-ethyl]-2-(2,5-dioxoimidazolidin-4-yl)-acetamide], the half-inhibitory concentration (IC50) is 7 nM.

Turning to `O=C(CC1NC(=O)NC1=O)NCCc1ccc(-c2ccccc2)cc1` (stereo not shown) [Example 5, N-(2-Biphenyl-4-yl-ethyl)-2-(2,5-dioxoimidazolidin-4-yl)-acetamide], the half-maximal inhibitory concentration (IC50) was 32 nM.

With `O=C(CC1NC(=O)NC1=O)NCCc1ccc(-c2cccs2)cc1` (stereo not shown) [Example 14, 2-(2,5-Dioxoimidazolidin-4-yl)-N-[2-(4-thiophen-2-yl-phenyl)ethyl]-acetamide], the IC50 turned out to be 6 nM.

As for `O=C(CC1NC(=O)NC1=O)NCCc1ccc(-c2cc(Cl)cc(Cl)c2)cc1` (stereo not shown) [Example 21, N-[2-(3′,5′-Dichloro-biphenyl-4-yl)ethyl]-2-(2,5-dioxoimidazolidin-4-yl)-acetamide], the IC50 came to 8 nM.

Take `Cc1cccc(-c2ccc(CCNC(=O)CC3NC(=O)NC3=O)cc2)c1` (stereo not shown) [Example 22, 2-(2,5-Dioxoimidazolidin-4-yl)-N-[2-(3′-methyl-biphenyl-4-yl)ethyl]-acetamide]: the 50% inhibitory concentration (IC50) was 15 nM.

With `O=C(CC1NC(=O)NC1=O)NCCc1ccc(-c2cc3ccccc3o2)cc1` (stereo not shown) [Example 23, N-[2-(4-Benzofuran-2-yl-phenyl)ethyl]-2-(2,5dioxoimidazolidin-4-yl)-acetamide], the IC50 came to 6 nM.

Consider `COc1cccc(-c2ccc(CCNC(=O)CC3NC(=O)NC3=O)cc2)c1` (stereo not shown) [Example 24, 2-(2,5-Dioxoimidazolidin-4-yl)-N-[2-(3′-methoxy-biphenyl-4-yl)ethyl]-acetamide], for which the IC50 was found to be 4 nM.

Take `CC(=O)c1ccc(-c2ccc(CCNC(=O)CC3NC(=O)NC3=O)cc2)cc1` (stereo not shown) [Example 26, N-[2-(4′-Acetyl-biphenyl-4-yl)ethyl]-2-(2,5-dioxoimidazolidin-4-yl)-acetamide]: the IC50 stood at 17 nM.

Consider `O=C(CC1NC(=O)NC1=O)NCCc1ccc(-c2cc3ccccc3s2)cc1` (stereo not shown) [Example 27, N-[2-(4-Benzo[b]thiophen-2-yl-phenyl)ethyl]-2-(2,5-dioxoimidazolidin-4-yl)-acetamide], for which the IC50 stood at 5 nM.
